Experimental data from PubChem BioAssay (NCI).
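These data come from cells grown in 96-well plates and exposed to compound for 48 hours at five concentrations. GI50 is the concentration that inhibits growth by half. TGI marks complete inhibition of growth.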

Experiments:
Assay in all cases: inhibition of tumour cell growth, NCI panel, 48 h
MDA-MB-231 breast = test system: MDA-MB-231 breast
DU-145 prostate = test system: DU-145 prostate
SK-MEL-2 melanoma = test system: SK-MEL-2 melanoma
HCT-15 colon = test system: HCT-15 colon
SN12C renal = test system: SN12C renal
OVCAR-4 ovarian = test system: OVCAR-4 ovarian
LOX IMVI melanoma = test system: LOX IMVI melanoma
OVCAR-8 ovarian = test system: OVCAR-8 ovarian
NCI-H522 lung = test system: NCI-H522 lung
CCRF-CEM leukemia = test system: CCRF-CEM leukemia
SW-620 colon = test system: SW-620 colon
NCI/ADR-RES ovarian = test system: NCI/ADR-RES ovarian
NCI-H23 lung = test system: NCI-H23 lung
SNB-19 CNS = test system: SNB-19 CNS
A498 renal = test system: A498 renal
HS 578T breast = test system: HS 578T breast
T-47D breast = test system: T-47D breast
MCF7 breast = test system: MCF7 breast
COLO 205 colon = test system: COLO 205 colon
IGROV1 ovarian = test system: IGROV1 ovarian
CAKI-1 renal = test system: CAKI-1 renal
BT-549 breast = test system: BT-549 breast
K-562 leukemia = test system: K-562 leukemia
UO-31 renal = test system: UO-31 renal
MALME-3M melanoma = test system: MALME-3M melanoma
HOP-92 NSCLC = test system: HOP-92 NSCLC
HL-60(TB) leukemia = test system: HL-60(TB) leukemia
KM12 colon = test system: KM12 colon
786-0 renal = test system: 786-0 renal
UACC-62 melanoma = test system: UACC-62 melanoma
SK-MEL-5 melanoma = test system: SK-MEL-5 melanoma
SR leukemia = test system: SR leukemia
TK-10 renal = test system: TK-10 renal
M14 melanoma = test system: M14 melanoma
MOLT-4 leukemia = test system: MOLT-4 leukemia
SF-539 CNS = test system: SF-539 CNS
U251 CNS = test system: U251 CNS
UACC-257 melanoma = test system: UACC-257 melanoma
SF-295 CNS = test system: SF-295 CNS
ACHN renal = test system: ACHN renal
HT29 colon = test system: HT29 colon
HOP-62 NSCLC = test system: HOP-62 NSCLC
SK-OV-3 ovarian = test system: SK-OV-3 ovarian
OVCAR-5 ovarian = test system: OVCAR-5 ovarian
SF-268 CNS = test system: SF-268 CNS
SNB-75 CNS = test system: SNB-75 CNS
PC-3 prostate = test system: PC-3 prostate
RPMI-8226 leukemia = test system: RPMI-8226 leukemia
NCI-H226 lung = test system: NCI-H226 lung
A549 NSCLC = test system: A549 NSCLC
EKVX NSCLC = test system: EKVX NSCLC
HCT-116 colon = test system: HCT-116 colon
SK-MEL-28 melanoma = test system: SK-MEL-28 melanoma
HCC-2998 colon = test system: HCC-2998 colon
RXF 393 renal = test system: RXF 393 renal
OVCAR-3 ovarian = test system: OVCAR-3 ovarian
NCI-H460 lung = test system: NCI-H460 lung

SMILES: COc1ccc(C(=O)c2cc(C)c(OC)c(C)c2)c(OC)c1OC(=O)C(Cl)Cl
- GI50 (MDA-MB-231 breast): 75 nM
- TGI (MDA-MB-231 breast): > 100000 nM
- GI50 (DU-145 prostate): 37.7 nM
- TGI (DU-145 prostate): 4800 nM
- GI50 (SK-MEL-2 melanoma): 132 nM
- TGI (SK-MEL-2 melanoma): > 100000 nM
- GI50 (HCT-15 colon): 33.9 nM
- TGI (HCT-15 colon): > 100000 nM
- GI50 (SN12C renal): 95.6 nM
- TGI (SN12C renal): > 100000 nM
- GI50 (OVCAR-4 ovarian): 422 nM
- TGI (OVCAR-4 ovarian): > 100000 nM
- GI50 (LOX IMVI melanoma): 45.5 nM
- TGI (LOX IMVI melanoma): > 100000 nM
- GI50 (OVCAR-8 ovarian): 45.6 nM
- TGI (OVCAR-8 ovarian): > 100000 nM
- GI50 (NCI-H522 lung): 28.6 nM
- TGI (NCI-H522 lung): 1200 nM
- GI50 (CCRF-CEM leukemia): 38.6 nM
- TGI (CCRF-CEM leukemia): > 100000 nM
- GI50 (SW-620 colon): 37.7 nM
- TGI (SW-620 colon): > 100000 nM
- GI50 (NCI/ADR-RES ovarian): 32.4 nM
- TGI (NCI/ADR-RES ovarian): > 100000 nM
- GI50 (NCI-H23 lung): 68.1 nM
- TGI (NCI-H23 lung): > 100000 nM
- GI50 (SNB-19 CNS): 43.2 nM
- TGI (SNB-19 CNS): > 100000 nM
- GI50 (A498 renal): 1740 nM
- TGI (A498 renal): 5890 nM
- GI50 (HS 578T breast): 29.4 nM
- TGI (HS 578T breast): 73400 nM
- GI50 (T-47D breast): 6370 nM
- TGI (T-47D breast): > 100000 nM
- GI50 (MCF7 breast): 200 nM
- TGI (MCF7 breast): > 100000 nM
- GI50 (COLO 205 colon): 6740 nM
- TGI (COLO 205 colon): 32400 nM
- GI50 (IGROV1 ovarian): 464 nM
- TGI (IGROV1 ovarian): > 100000 nM
- GI50 (CAKI-1 renal): 338 nM
- TGI (CAKI-1 renal): > 100000 nM
- GI50 (BT-549 breast): 29.3 nM
- TGI (BT-549 breast): 1700 nM
- GI50 (K-562 leukemia): 33.6 nM
- TGI (K-562 leukemia): > 100000 nM
- GI50 (UO-31 renal): 65.8 nM
- TGI (UO-31 renal): > 50500 nM
- GI50 (MALME-3M melanoma): 71.4 nM
- TGI (MALME-3M melanoma): > 100000 nM
- GI50 (HOP-92 NSCLC): 216 nM
- TGI (HOP-92 NSCLC): > 92900 nM
- GI50 (HL-60(TB) leukemia): 25.1 nM
- TGI (HL-60(TB) leukemia): 71.9 nM
- GI50 (KM12 colon): 36.2 nM
- TGI (KM12 colon): > 100000 nM
- GI50 (786-0 renal): 396 nM
- TGI (786-0 renal): > 100000 nM
- GI50 (UACC-62 melanoma): 657 nM
- TGI (UACC-62 melanoma): > 100000 nM
- GI50 (SK-MEL-5 melanoma): 52.1 nM
- TGI (SK-MEL-5 melanoma): 326 nM
- GI50 (SR leukemia): 18.1 nM
- TGI (SR leukemia): > 100000 nM
- GI50 (TK-10 renal): 17200 nM
- TGI (TK-10 renal): > 100000 nM
- GI50 (M14 melanoma): 22.9 nM
- TGI (M14 melanoma): > 100000 nM
- GI50 (MOLT-4 leukemia): 43.6 nM
- TGI (MOLT-4 leukemia): > 100000 nM
- GI50 (SF-539 CNS): 23.8 nM
- TGI (SF-539 CNS): 70.2 nM
- GI50 (U251 CNS): 46.8 nM
- TGI (U251 CNS): > 100000 nM
- GI50 (UACC-257 melanoma): 25600 nM
- TGI (UACC-257 melanoma): > 100000 nM
- GI50 (SF-295 CNS): 164 nM
- TGI (SF-295 CNS): > 25100 nM
- GI50 (ACHN renal): 55.4 nM
- TGI (ACHN renal): > 100000 nM
- GI50 (HT29 colon): 3440 nM
- TGI (HT29 colon): > 49800 nM
- GI50 (HOP-62 NSCLC): 221 nM
- TGI (HOP-62 NSCLC): > 100000 nM
- GI50 (SK-OV-3 ovarian): 163 nM
- TGI (SK-OV-3 ovarian): > 100000 nM
- GI50 (OVCAR-5 ovarian): 5510 nM
- TGI (OVCAR-5 ovarian): > 100000 nM
- GI50 (SF-268 CNS): 198 nM
- TGI (SF-268 CNS): > 100000 nM
- GI50 (SNB-75 CNS): 31 nM
- TGI (SNB-75 CNS): > 100000 nM
- GI50 (PC-3 prostate): 43.6 nM
- TGI (PC-3 prostate): > 100000 nM
- GI50 (RPMI-8226 leukemia): 41.6 nM
- TGI (RPMI-8226 leukemia): 27800 nM
- GI50 (NCI-H226 lung): 2410 nM
- TGI (NCI-H226 lung): 7030 nM
- GI50 (A549 NSCLC): 361 nM
- TGI (A549 NSCLC): > 100000 nM
- GI50 (EKVX NSCLC): 321 nM
- TGI (EKVX NSCLC): > 100000 nM
- GI50 (HCT-116 colon): 97.6 nM
- TGI (HCT-116 colon): > 100000 nM
- GI50 (SK-MEL-28 melanoma): 63.2 nM
- TGI (SK-MEL-28 melanoma): > 100000 nM
- GI50 (HCC-2998 colon): 178 nM
- TGI (HCC-2998 colon): > 23600 nM
- GI50 (RXF 393 renal): 257 nM
- TGI (RXF 393 renal): > 100000 nM
- GI50 (OVCAR-3 ovarian): 35.3 nM
- GI50 (NCI-H460 lung): 62.9 nM
- TGI (NCI-H460 lung): 3270 nM
